Results: patent US20240327423A1, “A SERIES OF PYRROLE DERIVATIVES AND THEIR PREPARATION METHOD AND THERAPEUTIC USE” (SHENZHEN SUNGENING BIO-MEDICAL CO., LTD, priority 2020, published 2024)

System: Aspergillus fumigatus ATCCMYA-4690 (AF293)
Assay: Survival rate experiment II of mouse bloodstream infection model with Aspergillus fumigatus
Type: in vivo
Conditions: for day 7 survival rate: 3 mg/kg (bid) orally for 6 days, started 24 hours after infection; for survival time of mouses: oral, bid
Procedure: Test Case 6: Survival Rate Experiment II of Mouse Bloodstream Infection Model with Aspergillus fumigatus • Animal for experiment: male CD-1 mouse, 6-8 weeks old, 10 animals per group. • Induction of immunosuppression: the day of infection is defined as day 0, and mouses are injected intraperitoneally with corresponding doses of cyclophosphamide on day −4 (150 mg/kg), day −1 (100 mg/kg), and day 2 (100 mg/kg), respectively. • Microbial pathogen: Aspergillus fumigatus ATCCMYA-4690 (AF293). • Collection conditions of inoculum: culture on SDA culture plates, incubate at 25° C. for at least 7 days, collect with PBS+0.1% Tween 20, and count microscopically; • Inoculation level, route and volume: 3.90E+05 CFU/mouse, tail vein injection, injection volume of 100 μL/mouse; • Treatment: Treatment is started 24 hours after infection, and test compounds are dissolved in PEG400 (0.3 mg/mL), […] The administrated mouses are observed for 8 hours.

[1] = immunosuppressed male CD-1 mouse

SMILES | day 7 survival rate [1] | survival rate (immunosuppressed male CD-1 mouse, 10 mg/kg (bid)) | survival time of mouses [1] | dose dependence of survival (three doses of 1 mg/kg, 3 mg/kg and 10 mg/kg)
Cc1cc(-c2ccccc2)c(C(=O)C(=O)Nc2ccc3c(c2)C[C@H]2CN(c4ncc(F)cn4)CCN32)n1C [Example 33, (S)-2-(1,5-dimethyl-3-phenyl-1H-pyrrol-2-yl)-N-(2-(5-fluoropyrimidin-2-yl)-1,2,3,4,10,10a-hexahydropyrazino[1,2-a]indol-8-yl)-2-oxoacetamide] | 30% | 80% | prolong the survival time | dose-dependent relationship
Cc1cc(-c2ccccc2)c(C(=O)C(=O)Nc2ccc(N3CCN(c4ncc(F)cn4)CC3)cc2)n1C [Example F901318, reference compound] | 0% | – | prolong the survival time | –
